In US10434147B2, “Treatment type 2 diabetes mellitus patients” (Sanofi-Aventis Deutschland GmbH, priority 2015, dated 2019):

Assays:
[1] = system: Patients with Type 2 Diabetes Insufficiently Controlled with Insulin Glargine with or without Metformin; test: Body weight, 26-week study; assay type: in vivo, human; conditions: once daily or three times daily; in words
Text: FIG. 6—Graphical study design. ^1 Insulin glargine should be injected subcutaneously once daily at dinner or breakfast time (according to patient's/investigators' preference). […] Meal used for insulin glulisine dosing should remain the same throughout the 26-week treatment period. ^4 Injection of insulin glulisine prior to breakfast, lunch and dinner.
Co-primary endpoints at 26 weeks were (1) non-inferiority (95% CI upper bound <0.4%) in HbA1c reduction with LIXI vs GLU-1 and (2) for LIXI vs GLU-3, either non-inferiority in HbA1c reduction (2a) OR superiority (one-sided α≤0.025) in body weight change (2b). FPG, PPG, IG dose, composite outcomes, AEs, and hypoglycemia were assessed.

[2] = system: obese type 2 diabetes mellitus patients poorly controlled with a basal insulin alone or with one to three oral anti-diabetic drugs; test: 12-week insulin glargine titration (run-in); assay type: in vivo, human; conditions: 12 weeks titration, optionally with metformin

Substance | Effect of the comparative treatment on body weight [1] | fasting glucose plasma concentration after titration of insulin glargine ([2]; initial reduction from 9.16 mmol/L) [mmol/L] | HbA1c after titration of insulin glargine ([2]; initial reduction from 8.51%) [%]
insulin glulisine: prandial insulin, comparative treatment once daily or three times daily | significant weight gain | – | –
Gly(A21)-Arg(B31)-Arg(B32) human insulin [insulin glargine] | – | 6.91 | 7.87
